ChEMBL document CHEMBL1201862, “PubChem BioAssay data set” (2004)
Calls of active or inactive are those of the source.

Experiments:
[1] = molecular target: T1, Polyadenylate-binding protein 1 (Homo sapiens, UniProt P11940); assay: PABP1 MLLE–PAM2 interaction inhibitors, dose response, miRNA deadenylation inhibitor project, biochemical, fluorescence polarization, Cy5-PAM2 peptide, secondary (AID 602260); type: functional; conditions: read-out: IC50_Mean
[2] = molecular target: T1, Polyadenylate-binding protein 1; assay: PABP1 MLLE–PAM2 binding inhibitor potency, dose response, biochemical, fluorescence polarization, FITC-PAM2 peptide (AID 602259); type: functional; conditions: read-out: IC50_Mean
[3] = Shn3 3'UTR reporter inhibitors, dose response, cell-based, Clone20 osteoblasts, firefly luciferase, cherry-picked (AID 624132); type: functional;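 also: firefly luciferase luminescence from reporter carrying the Shn3 3'UTR in osteoblasts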
[4] = HepG2 cell cytotoxicity, dose response, cytotoxicity control for Shn3 inhibitor project, CellTiter-Glo, cherry-picked (AID 624134); type: functional, cell-based
[5] = control 3'UTR Renilla luciferase suppression, dose response, counter-screen for Shn3 inhibitor project, cell-based, Clone20-Shn3RL, cherry-picked (AID 624133); type: functional
[6] = molecular target: T2, Corticotropin-releasing factor receptor 2/Corticotropin-releasing factor-binding protein (Homo sapiens, UniProt P24387+Q13324); assay: Dose Response confirmation of uHTS hits for small molecule antagonists of the CRF-binding protein and CRF-R2 receptor complex.; type: functional; conditions: read-out: IC50_Mean
T2 sequence (Q13324 whole entry): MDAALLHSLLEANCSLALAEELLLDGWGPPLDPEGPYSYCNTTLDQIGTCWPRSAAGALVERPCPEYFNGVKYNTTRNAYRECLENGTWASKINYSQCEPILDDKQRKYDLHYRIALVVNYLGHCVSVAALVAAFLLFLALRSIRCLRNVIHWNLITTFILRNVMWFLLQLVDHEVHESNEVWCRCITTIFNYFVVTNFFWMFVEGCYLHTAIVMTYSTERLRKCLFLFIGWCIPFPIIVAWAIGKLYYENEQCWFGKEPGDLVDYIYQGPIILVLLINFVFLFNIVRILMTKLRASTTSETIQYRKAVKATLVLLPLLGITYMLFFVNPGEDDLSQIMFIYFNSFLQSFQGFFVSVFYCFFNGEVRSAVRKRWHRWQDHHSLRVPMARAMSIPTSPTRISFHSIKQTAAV
T2 sequence (P24387 whole entry): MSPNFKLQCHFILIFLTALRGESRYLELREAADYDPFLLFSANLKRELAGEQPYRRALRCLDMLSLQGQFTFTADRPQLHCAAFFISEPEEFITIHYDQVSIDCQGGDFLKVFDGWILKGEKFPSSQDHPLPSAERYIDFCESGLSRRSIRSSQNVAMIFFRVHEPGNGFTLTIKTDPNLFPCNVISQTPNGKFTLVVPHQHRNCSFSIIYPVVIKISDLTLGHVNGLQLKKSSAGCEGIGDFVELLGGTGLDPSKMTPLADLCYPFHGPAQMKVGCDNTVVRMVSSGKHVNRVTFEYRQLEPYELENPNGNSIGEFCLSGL

[7] = molecular target: T2, Corticotropin-releasing factor receptor 2/Corticotropin-releasing factor-binding protein; assay: activators of CRF receptor 2 with binding protein – uHTS hits, confirmation (AID 602473); type: functional; conditions: read-out: EC50_Mean
[8] = molecular target: T3, High affinity choline transporter 1 (Homo sapiens, UniProt Q9GZV3); assay: CHT inhibitors, dose response, cell-based, 5-point CRC, membrane potential dye (AID 504840); type: functional
T3 sequence (Q9GZV3 whole entry): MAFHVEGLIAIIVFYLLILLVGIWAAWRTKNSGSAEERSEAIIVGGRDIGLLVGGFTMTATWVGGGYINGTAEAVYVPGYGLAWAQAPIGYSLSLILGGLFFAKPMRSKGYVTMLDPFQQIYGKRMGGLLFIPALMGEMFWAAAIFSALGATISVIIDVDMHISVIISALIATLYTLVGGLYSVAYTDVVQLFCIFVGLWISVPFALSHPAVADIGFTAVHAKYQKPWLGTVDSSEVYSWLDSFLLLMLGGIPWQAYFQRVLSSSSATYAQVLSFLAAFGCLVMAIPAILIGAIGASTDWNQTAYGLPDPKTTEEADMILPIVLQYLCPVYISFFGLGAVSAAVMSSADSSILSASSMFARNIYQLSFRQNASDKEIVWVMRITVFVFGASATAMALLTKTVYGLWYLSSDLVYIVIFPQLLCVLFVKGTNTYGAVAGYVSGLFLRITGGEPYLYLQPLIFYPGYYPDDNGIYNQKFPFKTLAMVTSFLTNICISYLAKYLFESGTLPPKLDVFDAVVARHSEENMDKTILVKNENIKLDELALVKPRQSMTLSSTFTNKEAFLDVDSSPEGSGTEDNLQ

[9] = HEp-2 cell cytotoxicity, dose response, cytotoxicity control for RSV inhibitor project, HTS (AID 2410); type: functional; conditions: human respiratory syncytial virus
[10] = molecular target: T4, Heat shock factor protein 1 (Mus musculus, UniProt P38532); assay: HSF1 potentiators in luciferase reporter cells, confirmation, cell-based, NIH3T3, luminescence, dose retest (AID 435004); type: functional;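 also: stress induced by proteasome inhibitor MG132 added 30 min after compound; luciferase reporter driven by HSF1 response element in NIH3T3 cells; actives raise luminescence as potentiators of the MG132 stress response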
T4 sequence (P38532 whole entry): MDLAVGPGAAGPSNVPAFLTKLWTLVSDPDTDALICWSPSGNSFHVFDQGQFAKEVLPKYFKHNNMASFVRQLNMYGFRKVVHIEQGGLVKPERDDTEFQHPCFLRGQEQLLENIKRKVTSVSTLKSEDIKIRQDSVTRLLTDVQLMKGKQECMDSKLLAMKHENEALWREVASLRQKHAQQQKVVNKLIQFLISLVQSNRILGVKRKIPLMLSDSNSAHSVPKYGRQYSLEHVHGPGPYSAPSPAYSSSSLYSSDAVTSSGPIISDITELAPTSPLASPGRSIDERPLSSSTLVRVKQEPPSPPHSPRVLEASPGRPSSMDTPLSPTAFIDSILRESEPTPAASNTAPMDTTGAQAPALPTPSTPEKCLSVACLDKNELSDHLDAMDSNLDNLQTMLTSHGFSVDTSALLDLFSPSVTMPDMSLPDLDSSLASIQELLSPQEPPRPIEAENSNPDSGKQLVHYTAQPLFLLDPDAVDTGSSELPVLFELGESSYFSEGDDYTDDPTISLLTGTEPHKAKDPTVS

Protein skinhead-1 = molecular target: T5, Protein skinhead-1 (Caenorhabditis elegans, UniProt P34707); type: functional
T5 sequence (P34707 whole entry): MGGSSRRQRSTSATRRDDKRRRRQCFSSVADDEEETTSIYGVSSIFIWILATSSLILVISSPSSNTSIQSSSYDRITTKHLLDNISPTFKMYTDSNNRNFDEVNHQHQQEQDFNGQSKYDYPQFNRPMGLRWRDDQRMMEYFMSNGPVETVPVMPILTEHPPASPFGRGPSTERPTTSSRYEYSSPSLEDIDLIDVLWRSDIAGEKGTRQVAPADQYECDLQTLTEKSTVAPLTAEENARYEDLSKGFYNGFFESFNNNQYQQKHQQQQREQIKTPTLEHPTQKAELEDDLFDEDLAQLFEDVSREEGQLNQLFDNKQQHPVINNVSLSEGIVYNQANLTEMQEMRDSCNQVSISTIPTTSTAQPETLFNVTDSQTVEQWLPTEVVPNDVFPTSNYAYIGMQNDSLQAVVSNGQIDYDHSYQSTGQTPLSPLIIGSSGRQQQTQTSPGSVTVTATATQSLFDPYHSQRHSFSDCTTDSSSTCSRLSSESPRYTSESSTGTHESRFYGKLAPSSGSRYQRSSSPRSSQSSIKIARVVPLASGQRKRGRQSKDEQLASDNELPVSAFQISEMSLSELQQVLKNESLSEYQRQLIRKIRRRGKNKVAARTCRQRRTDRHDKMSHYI

[11] = inhibitors of intracellular T. cruzi replication, confirmation, NIH3T3 host cells, beta-gal luminescence (AID 2044); type: functional, cell-based;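 also: intracellular parasites grown in NIH/3T3 mouse fibroblasts as host cells; luminescent beta-galactosidase reporter signal from transgenic T. cruzi replicating inside host cells; inhibitors lower the luminescence signal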
[12] = cytotoxicity toward NIH3T3 fibroblasts, dose response, counter-screen, cell-based, ATP luminescence, mouse fibroblasts (AID 2010); type: functional;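 also: cells exposed to compound for about 90 hours before reading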

T1 sequence (P11940 whole entry): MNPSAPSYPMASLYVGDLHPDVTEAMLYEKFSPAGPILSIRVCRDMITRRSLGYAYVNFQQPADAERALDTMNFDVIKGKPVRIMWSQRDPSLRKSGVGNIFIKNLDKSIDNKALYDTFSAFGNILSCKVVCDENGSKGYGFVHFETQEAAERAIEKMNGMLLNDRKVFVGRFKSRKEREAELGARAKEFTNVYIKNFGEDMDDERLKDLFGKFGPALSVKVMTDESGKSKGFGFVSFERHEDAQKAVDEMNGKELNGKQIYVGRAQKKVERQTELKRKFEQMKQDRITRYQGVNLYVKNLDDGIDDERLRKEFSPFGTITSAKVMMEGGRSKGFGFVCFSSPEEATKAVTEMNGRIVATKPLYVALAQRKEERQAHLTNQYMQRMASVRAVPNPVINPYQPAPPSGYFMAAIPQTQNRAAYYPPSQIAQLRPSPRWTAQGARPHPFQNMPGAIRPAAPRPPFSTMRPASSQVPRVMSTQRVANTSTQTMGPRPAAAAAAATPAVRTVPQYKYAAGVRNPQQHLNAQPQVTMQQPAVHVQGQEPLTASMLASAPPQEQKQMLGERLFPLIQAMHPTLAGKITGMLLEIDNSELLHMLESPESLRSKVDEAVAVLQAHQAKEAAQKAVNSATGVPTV

SMILES | AC50 [3] | AC50 [4] | AC50 [5] | also measured
O=C(NC(=S)Nc1ccccc1O)c1ccccc1Cl |  |  |  | IC50 [1]: > 66 µM (inactive); IC50 [2]: > 66 µM (inactive)
COc1ccc(N2CCN(C(=O)CN3CCN(c4nc(-c5ccc(F)cc5)cs4)CC3)CC2)cc1 | 1.81 µM (active) | 58 µM (active) | 1.16 µM (active) | 
CCOC(=O)c1c(-c2ccccc2)csc1NC(=O)C1CCCO1 (centres undefined) |  |  |  | IC50 [1]: > 66 µM (inactive); IC50 [2]: > 66 µM (inactive)
CCCCN(c1nc2ccccc2nc1Cl)S(=O)(=O)c1ccc(C)cc1 | 7.22 µM (active) | > 70 µM (inactive) | 30.7 µM (active) | 
Cc1ccc(C(=O)N2c3ccccc3N(Cc3ccccc3)C(=O)C2(C)C)cc1 | 6.92 µM (active) | > 70 µM (inactive) | 4.11 µM (active) | IC50 [6]: 5.66 µM (active); EC50 [7]: > 53 µM (inactive)
CC1CCCCC1NC(=O)c1cccc(N2C(=O)C3C4C=CC(C4)C3C2=O)c1 (centres undefined) |  |  |  | IC50 [8]: 14.5 µM (active)
O=C(O)c1cnn(-c2nc(-c3cccc([N+](=O)[O-])c3)cs2)c1C(F)(F)F |  |  |  | CC50 [9]: 37.9 µM (active); EC50 [10]: > 260 µM (inactive); IC50 [8]: 11 µM (active)
FC(F)(F)c1cnc2c(-c3ccc(Cl)cc3Cl)noc2c1 |  |  |  | IC50 (Protein skinhead-1): > 100 µM (inactive)
COc1ccccc1C1C(C(=O)NCc2ccccc2)=C(C)Nc2ncnn21 (centres undefined) |  |  |  | IC50 (Protein skinhead-1): > 100 µM (inactive)
CC1CCN(Cc2ccc(-c3nnn(CC(=O)Nc4ccccc4Cl)n3)cc2)CC1 | 1.77 µM (active) | > 70 µM (inactive) | 3.25 µM (active) | 
OC1(c2ccc(Br)cc2)C[N+](c2ccccc2)=C2SCCN21 (centres undefined) |  |  |  | IC50 [1]: > 66 µM (inactive); IC50 [2]: > 66 µM (inactive)
Cc1ccc(S(=O)(=O)Nc2ccc3ncccc3c2)cc1 | 2.2 µM (active) | 45.9 µM (active) | 29.3 µM (active) | 
CN(c1cccc(NC(=O)CN(c2ccc(C34CC5CC(CC(C5)C3)C4)cc2)S(C)(=O)=O)c1)S(C)(=O)=O | 7.58 µM (active) | 31.2 µM (active) | 7.86 µM (active) | EC50 [11]: 1.6 µM (active); EC50 [12]: 7.81 µM (active)
